Assay results: US20240139211A1, “METHODS AND COMPOSITIONS FOR TREATING AMYOTROPHIC LATERAL SCLEROSIS” (Amylyx Pharmaceuticals, Inc., priority 2022, published 2024)
Like-named read-outs stand apart in the source and are kept apart here.

Columns and labels:
CYP2B6 mRNA = experiment: CYP2B6 gene expression induction in hepatocyte cultures; conditions: for EC50: read-out: EC50, CYP2B6 gene expression
in vitro = conditions: human, Caco-2
MATE2K = MATE2K (Homo sapiens, UniProt Q86VL8); experiment: Inhibitor of MATE2-K, probe substrate uptake; conditions: for Inhibition of MATE2-K / Inhibitor of MATE2-K: two concentrations per test article; for potency estimated from few doses: read-out: Estimated IC50, MATE2-K
MATE2K, sequence (Q86VL8 1-566 isoform Q86VL8-3): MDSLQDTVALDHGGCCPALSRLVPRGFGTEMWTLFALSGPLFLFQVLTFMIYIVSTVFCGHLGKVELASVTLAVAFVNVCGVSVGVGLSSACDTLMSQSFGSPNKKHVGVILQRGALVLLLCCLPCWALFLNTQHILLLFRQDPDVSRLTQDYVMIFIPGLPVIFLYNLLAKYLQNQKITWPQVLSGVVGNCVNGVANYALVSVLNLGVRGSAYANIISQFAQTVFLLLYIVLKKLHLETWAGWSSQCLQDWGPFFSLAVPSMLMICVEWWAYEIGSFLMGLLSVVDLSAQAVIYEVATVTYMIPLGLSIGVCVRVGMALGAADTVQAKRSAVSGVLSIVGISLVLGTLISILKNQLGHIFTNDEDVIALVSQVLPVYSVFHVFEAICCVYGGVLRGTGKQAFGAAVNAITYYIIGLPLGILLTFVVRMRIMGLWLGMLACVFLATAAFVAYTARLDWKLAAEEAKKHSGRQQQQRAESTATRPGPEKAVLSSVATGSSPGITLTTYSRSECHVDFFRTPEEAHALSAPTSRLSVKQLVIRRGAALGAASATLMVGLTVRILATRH

BCRP = molecular target: T1, BCRP (Homo sapiens, UniProt Q9UNQ0); experiment: Substrate of BCRP (Caco-2 cells, selective inhibitor)
T1 sequence (Q9UNQ0 1-655): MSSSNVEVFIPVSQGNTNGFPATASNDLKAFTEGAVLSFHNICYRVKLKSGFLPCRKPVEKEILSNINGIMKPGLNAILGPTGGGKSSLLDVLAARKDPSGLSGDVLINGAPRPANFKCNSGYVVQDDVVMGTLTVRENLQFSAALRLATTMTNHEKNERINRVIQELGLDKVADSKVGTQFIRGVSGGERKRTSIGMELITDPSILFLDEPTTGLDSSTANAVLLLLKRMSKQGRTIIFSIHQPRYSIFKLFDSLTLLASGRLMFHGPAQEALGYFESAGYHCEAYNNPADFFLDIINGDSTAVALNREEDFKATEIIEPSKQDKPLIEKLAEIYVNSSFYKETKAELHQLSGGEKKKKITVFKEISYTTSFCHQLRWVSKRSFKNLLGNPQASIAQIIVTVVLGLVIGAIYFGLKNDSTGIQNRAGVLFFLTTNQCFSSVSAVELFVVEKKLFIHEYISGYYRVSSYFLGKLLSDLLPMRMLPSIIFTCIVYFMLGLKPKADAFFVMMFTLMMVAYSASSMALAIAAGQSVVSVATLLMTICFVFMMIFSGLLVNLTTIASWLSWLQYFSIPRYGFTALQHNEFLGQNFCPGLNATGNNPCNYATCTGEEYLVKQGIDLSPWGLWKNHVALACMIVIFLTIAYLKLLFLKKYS

P-gp = P-gp (Homo sapiens, UniProt P08183); experiment: Inhibitor of P-gp, 3H-digoxin efflux in Caco-2 cells; conditions: for potency estimated from few doses: read-out: Estimated IC50, P-gp
P-gp, sequence (P08183 whole entry): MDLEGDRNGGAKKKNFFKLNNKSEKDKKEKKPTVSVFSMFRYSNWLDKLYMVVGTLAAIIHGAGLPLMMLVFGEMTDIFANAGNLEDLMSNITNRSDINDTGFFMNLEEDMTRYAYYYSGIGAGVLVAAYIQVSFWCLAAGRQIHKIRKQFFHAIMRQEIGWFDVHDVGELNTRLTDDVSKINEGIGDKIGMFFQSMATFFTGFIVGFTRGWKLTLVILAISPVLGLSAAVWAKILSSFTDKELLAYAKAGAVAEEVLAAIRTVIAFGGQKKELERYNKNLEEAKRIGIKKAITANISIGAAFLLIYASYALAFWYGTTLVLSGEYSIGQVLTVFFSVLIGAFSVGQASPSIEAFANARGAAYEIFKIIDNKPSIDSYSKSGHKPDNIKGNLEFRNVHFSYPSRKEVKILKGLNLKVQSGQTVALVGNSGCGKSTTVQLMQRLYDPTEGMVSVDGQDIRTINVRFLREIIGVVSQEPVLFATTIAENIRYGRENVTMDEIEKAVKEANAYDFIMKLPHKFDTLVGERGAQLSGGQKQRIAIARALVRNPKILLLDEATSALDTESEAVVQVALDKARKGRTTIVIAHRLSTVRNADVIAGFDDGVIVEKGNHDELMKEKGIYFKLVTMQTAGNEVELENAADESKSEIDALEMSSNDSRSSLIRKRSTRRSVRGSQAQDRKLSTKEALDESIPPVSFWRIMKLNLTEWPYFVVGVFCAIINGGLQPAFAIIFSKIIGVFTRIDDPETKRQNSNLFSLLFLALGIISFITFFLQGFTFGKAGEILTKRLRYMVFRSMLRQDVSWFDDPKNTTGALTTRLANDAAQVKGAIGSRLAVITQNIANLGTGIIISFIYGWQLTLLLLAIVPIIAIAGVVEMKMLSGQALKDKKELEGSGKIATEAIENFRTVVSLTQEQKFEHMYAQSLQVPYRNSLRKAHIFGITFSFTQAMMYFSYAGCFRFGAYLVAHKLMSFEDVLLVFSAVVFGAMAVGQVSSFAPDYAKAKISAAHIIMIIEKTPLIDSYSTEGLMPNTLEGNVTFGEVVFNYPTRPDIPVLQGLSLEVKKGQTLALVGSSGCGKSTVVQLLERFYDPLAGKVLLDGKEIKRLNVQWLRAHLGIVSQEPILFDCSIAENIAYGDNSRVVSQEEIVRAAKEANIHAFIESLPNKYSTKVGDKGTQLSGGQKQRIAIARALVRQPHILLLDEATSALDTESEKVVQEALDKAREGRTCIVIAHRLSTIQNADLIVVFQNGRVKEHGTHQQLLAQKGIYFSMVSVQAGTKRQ

OAT1 = molecular target: T2, OAT1 (Homo sapiens, UniProt Q4U2R8); experiment: Substrate of OAT1, uptake in HEK293 cells
T2 sequence (Q4U2R8 1-563): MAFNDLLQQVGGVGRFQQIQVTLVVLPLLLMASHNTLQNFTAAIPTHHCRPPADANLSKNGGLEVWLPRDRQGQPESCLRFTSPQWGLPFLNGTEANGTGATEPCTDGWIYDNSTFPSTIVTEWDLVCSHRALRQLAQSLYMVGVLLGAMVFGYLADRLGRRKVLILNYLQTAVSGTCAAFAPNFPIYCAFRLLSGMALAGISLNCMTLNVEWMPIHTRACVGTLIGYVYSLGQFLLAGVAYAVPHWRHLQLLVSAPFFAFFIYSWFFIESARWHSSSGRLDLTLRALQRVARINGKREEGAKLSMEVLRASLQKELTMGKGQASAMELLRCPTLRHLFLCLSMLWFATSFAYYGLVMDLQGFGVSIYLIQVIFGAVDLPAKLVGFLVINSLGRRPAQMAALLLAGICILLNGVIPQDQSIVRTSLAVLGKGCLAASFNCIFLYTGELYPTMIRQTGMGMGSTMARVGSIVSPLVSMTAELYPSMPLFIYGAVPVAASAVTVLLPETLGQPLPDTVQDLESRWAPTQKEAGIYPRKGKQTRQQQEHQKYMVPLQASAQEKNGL
Description: (§1) Vector-transfected HEK cells were used as a control.

OCT2 = molecular target: T3, OCT2 (Homo sapiens, UniProt O15244); experiment: Substrate of OCT2, uptake in HEK293 cells
T3 sequence (O15244 1-555): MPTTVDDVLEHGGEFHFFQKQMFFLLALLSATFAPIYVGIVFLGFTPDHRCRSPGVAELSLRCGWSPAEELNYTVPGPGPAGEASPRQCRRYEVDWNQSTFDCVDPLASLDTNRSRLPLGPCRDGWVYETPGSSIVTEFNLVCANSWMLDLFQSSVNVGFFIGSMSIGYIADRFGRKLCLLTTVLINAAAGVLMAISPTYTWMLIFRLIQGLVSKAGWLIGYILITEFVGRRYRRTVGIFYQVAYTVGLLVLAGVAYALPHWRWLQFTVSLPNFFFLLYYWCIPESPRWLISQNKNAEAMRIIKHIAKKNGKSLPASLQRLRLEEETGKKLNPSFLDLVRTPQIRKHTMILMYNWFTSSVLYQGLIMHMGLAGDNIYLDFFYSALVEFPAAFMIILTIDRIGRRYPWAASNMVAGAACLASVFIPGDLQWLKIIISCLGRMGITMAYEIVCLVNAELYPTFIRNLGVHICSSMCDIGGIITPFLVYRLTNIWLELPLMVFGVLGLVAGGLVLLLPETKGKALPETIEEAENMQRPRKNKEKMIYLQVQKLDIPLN
Description: as §1

OCT1 = molecular target: T4, OCT1 (Homo sapiens, UniProt O15245); experiment: Substrate of OCT1, uptake in HEK293 cells
T4 sequence (O15245 1-554): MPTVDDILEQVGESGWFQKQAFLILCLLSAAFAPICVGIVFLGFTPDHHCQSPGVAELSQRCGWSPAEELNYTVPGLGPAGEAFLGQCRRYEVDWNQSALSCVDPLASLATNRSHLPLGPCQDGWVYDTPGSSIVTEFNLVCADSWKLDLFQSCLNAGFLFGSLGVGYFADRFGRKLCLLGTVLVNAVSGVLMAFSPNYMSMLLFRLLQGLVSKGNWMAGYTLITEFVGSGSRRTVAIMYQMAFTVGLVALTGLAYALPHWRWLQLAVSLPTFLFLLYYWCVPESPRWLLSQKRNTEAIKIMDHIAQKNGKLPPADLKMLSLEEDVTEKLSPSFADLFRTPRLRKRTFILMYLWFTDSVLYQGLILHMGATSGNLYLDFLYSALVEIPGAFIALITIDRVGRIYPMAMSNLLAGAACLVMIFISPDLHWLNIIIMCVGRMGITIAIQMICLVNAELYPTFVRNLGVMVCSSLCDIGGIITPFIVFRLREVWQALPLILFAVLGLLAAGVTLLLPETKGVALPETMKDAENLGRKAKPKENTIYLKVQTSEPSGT
Description: as §1

[1] = test article 1 and 10 μM, Caco-2 cells
[2] = Caco-2, two concentrations per test article
[3] = two concentrations per test article, Caco-2 cells
[4] = estimated from two concentrations, Caco-2 cells
[5] = estimated from two concentrations
[6] = Caco-2, estimated from two doses

| Compound | Emax, CYP2B6 gene expression (CYP2B6 mRNA; Donor 1) [fold] | Emax, CYP2B6 gene expression (CYP2B6 mRNA; Donor 2) [fold] | EC50 (CYP2B6 mRNA; Donor 2) [µM] | Papp A→B (in vitro) [×10⁻⁶ cm/s] | Papp B→A (in vitro) [×10⁻⁶ cm/s] | Inhibition of MATE2-K (MATE2K) | Inhibitor of MATE2-K (MATE2K) | Substrate of BCRP (BCRP; Caco-2, 1 and 10 μM) | Substrate of BCRP (BCRP; [1]) | Inhibitor of P-gp (P-gp; [2]) | Remaining P-gp activity, % of the control (P-gp; higher test concentration) [%] | Remaining P-gp activity, % of the control (P-gp; lower test concentration) [%] | Inhibitor of P-gp (P-gp; [3]) | potency estimated from few doses (P-gp; [4]) [µM] | Substrate of OAT1 (OAT1; 1 and 10 μM) | Substrate of OAT1 (OAT1; test article 1 and 10 μM) | Substrate of OCT2 (OCT2; 1 and 10 μM) | Substrate of OCT2 (OCT2; test article 1 and 10 μM) | Substrate of OCT1 (OCT1; 1 and 10 μM) | Substrate of OCT1 (OCT1; test article 1 and 10 μM) | also measured |
| --- | --- | --- | --- | --- | --- | --- | --- | --- | --- | --- | --- | --- | --- | --- | --- | --- | --- | --- | --- | --- | --- |
| O=C(O)CCCc1ccccc1 [PB, sodium phenylbutyrate] | 8.54 | 24.4 | 108 | ≤ 28.9 | 254 | did not inhibit | No | not a substrate | No | not an inhibitor | 106 | 93.5 | No | – | – | – | – | – | – | – | EC50 (CYP2B6 mRNA; Donor 1): 19.1 µM |
| C[C@H](CCC(=O)NCC(=O)O)[C@H]1CC[C@H]2[C@@H]3[C@@H](O)C[C@@H]4C[C@H](O)CC[C@]4(C)[C@H]3CC[C@]12C [Glycoursodeoxycholic acid, glycoursodeoxycholic acid] | 5.60 | 4.53 | 1.39 | ≥ 2.4 | ≥ 6.84 | did not inhibit | No | as a substrate | Yes | identified as an inhibitor | – | – | Yes | < 10 | – | – | – | – | – | – | Maximum fold induction of CYP2B6 gene expression (CYP2B6 mRNA; Donor 2): 4.80 fold; Emax, CYP2B6 gene expression (CYP2B6 mRNA; Donor 3): 5.78 fold; Maximum fold induction of CYP2B6 gene expression (CYP2B6 mRNA; Donor 3): 5.68 fold; EC50 (CYP2B6 mRNA; Donor 3): 1.48 µM; efflux ratio at 1 μM (in vitro): 1.86; efflux ratio at 10 μM (in vitro): 2.85; recovery (in vitro): ≥ 75%; Efflux remaining with Ko143 (BCRP; Caco-2): < 18.8% |
| O=C(O)Cc1ccccc1 [Phenylacetic acid, phenylacetic acid] | 11.1 | – | – | ≥ 26.1 | ≥ 16.9 | did not inhibit | No | not a substrate | No | weak inhibitor | 75.6 | 85.9 | Yes | > 7500 | not a substrate | No | not a substrate | No | not a substrate | No | recovery (in vitro): ≥ 90.2% |
| tauroursodeoxycholic acid [TUDCA] | – | – | – | – | – | inhibited | Yes | as a substrate | Yes | identified as an inhibitor | 57.3 | 78.8 | Yes | > 50 | not a substrate | No | not a substrate | No | not a substrate | No | Inducer of CYP2B6 (conclusion) (CYP2B6 mRNA; gene expression and enzyme activity, three donors): did not meet the classification requirements to be identified as an inducer; Uptake activity remaining, MATE2-K (MATE2K; concentration not stated (5 and 50 μM tested)): 44.3%; potency estimated from few doses (MATE2K; [5]): < 50 µM; potency estimated from few doses (MATE2K; estimated from two doses): < 50 µM; potency estimated from few doses (P-gp; [6]): > 50 µM |
| ursodeoxycholic acid | – | – | – | – | – | inhibited | Yes | not a substrate | No | identified as an inhibitor | 13.0 | 348 | Yes^a | < 500 | not a substrate | No | not a substrate | No | not a substrate | No | potency estimated from few doses (MATE2K; [5]): > 500 µM; potency estimated from few doses (MATE2K; estimated from two doses): > 500 µM; potency estimated from few doses (P-gp; [6]): < 500 µM |
